Columns and labels:
[1] = tested on: human αMHC promoter-driven EGFP transgenic monkey ESCs; assay: αMHC promoter-driven GFP expression, cardiac differentiation of transgenic monkey ESCs (HCA); assay type: cell-based; conditions: for intensity of the GFP signal driven by αMHC promoter: comparison of chemical and proteinaceous WNT inhibitors, FIG. 3b,c; for cardiac differentiation when BIO was added: monkey ESCs and hiPSCs, with 5 μM BIO
From the text: To generate human αMHC promoter-driven EGFP-expressing monkey ESCs, the 918 bp upstream from the transcriptional starting site and the third exon just before the open reading frame were amplified from genomic DNAs of KhES-1 hESCs by PCR, using the following primer sets —forward primer, 5′- […]-3′ (SEQ ID No: 37); reverse primer, 5′- (including a SalI linker) 22 […]-3′ (SEQ ID No: 38)—and then ligated into pGEM-T Easy Vector (Promega). The HindIII/SalI fragment from the cloning vector was connected with pEGFP-1 (Clontech). The linearized αMHC-EFGP vector was introduced into CMK6.4 monkey ESCs by electroporation. Transgenic ESC clones were selectively grown with G418 (Sigma-Aldrich). The expression of EGEP was confirmed in beating colonies.
The confluent (4-5 d after passage) αMHC-GFP transgenic monkey ESCs were dissociated enzymatically by CTK solution (Non-patent literature 1), and the ESC clumps (40-100 μm in diameter) were obtained using 40 and 100 μm Cell Strainers (BD Biosciences). The ESC clumps (approximately 5.0×10^3 cells well^−1) were transferred onto 96-well plates (Greiner Bio-One, 96-well black plate, Cat. No. 655090) and incubated in cardiac differentiation medium as described in (4) below. During Days 6-14 of cardiac differentiation, 9600 compounds from the chemical library (dissolved in DMSO) were screened using 96-well plates. Sixteen and 80 wells were used for the control (0.1% DMSO) and chemical compounds (1 per well), respectively. Final concentration of the each compound was approximately 1-5 μM. Medium containing small molecules was changed every 4 d. On Day 14, GFP fluorescence of ESCs was measured by whole-plate scanning, using the Metamorph imaging system (Molecular Device). Metamorph software was used to analyze the GFP fluorescence data and calculate Fluorescence Area, Total Fluorescence Intensity, Average Fluorescence Intensity, and number of GFP-positive colonies for each well. Hit compounds were determined by the following criteria: Average Fluorescence Intensity of a well with the compound was >6 SD greater than Average Fluorescence Intensity of the control (mean of 16 wells), and Total Fluorescence Intensity for the compound was >0 SD greater than the control; or Total Fluorescence Intensity of the compound was >4 SD greater than the control, and Average Fluorescence Intensity of the compound was >0 SD greater than the control. One hundred and twenty compounds passed these criteria and were retested using 8 wells for each compound.
Confluent hESCs and hiPSCs were gently detached with CTK solution and transferred into Petri dishes (BD Biosciences) with Primate ES Cell Culture Medium (ReproCELL, Japan). Cells were held in suspension culture for 8-24 h to form aggregates. The sizes of hPSC aggregates (0.3-1 mm in diameter) are important for efficient differentiation. Following suspension culture, cell aggregates were attached to culture dishes (3-10×10^5 cells cm^−2) in cardiac differentiation medium: IMDM (Sigma), containing 20% FBS (Gibco), 1% MEM non-essential amino acid solution (Sigma), 1% Penicillin-Streptomycin (Gibco), 2 mM L-glutamine (Sigma), 0.001% 2-Mercaptoethanol (Gibco), and 0.005N NaOH, with 10 ng ml^−1 BMP4 (R&D Systems). The medium was changed to cardiac differentiation medium with 10 μM KY02111 and/or other WNT inhibitors added on Day 3 (hiPSC lines) or Day 4 (human or monkey ESC lines); XAV939 (Wako, Japan), IWP-2 (Santa Cruz Biotechnology), IWR-1 (Merck4Bioscience), IGFBP4 (R&D Systems), Dkk1 (R&D Systems) and the mixture of bFGF (R&D Systems), BMP4 (R&D Systems), VEGF (R&D Systems), DKK1 (R&D Systems), and Activin A (R&D Systems) (Non-patent literature 16). Medium was changed every 2-3 d. KY02111 and other WNT inhibitors were added until Day 9 for hiPSC lines and the monkey ESC line, or Day 14 for hESC lines. […]

IMR90-1 hiPSCs = assay: Beating colonies of hiPSCs (IMR90-1) in serum-containing cardiac differentiation; assay type: cell-based, human; conditions: for proportions of beating colonies: hiPSCs; for proportions of beating colonies with BIO: with 5 μM BIO (GSK3β inhibitor)
Procedure: Confluent hESCs and hiPSCs were gently detached with CTK solution and transferred into Petri dishes (BD Biosciences) with Primate ES Cell Culture Medium (ReproCELL, Japan). Cells were held in suspension culture for 8-24 h to form aggregates. The sizes of hPSC aggregates (0.3-1 mm in diameter) are important for efficient differentiation. Following suspension culture, cell aggregates were attached to culture dishes (3-10×10^5 cells cm^−2) in cardiac differentiation medium: IMDM (Sigma), containing 20% FBS (Gibco), 1% MEM non-essential amino acid solution (Sigma), 1% Penicillin-Streptomycin (Gibco), 2 mM L-glutamine (Sigma), 0.001% 2-Mercaptoethanol (Gibco), and 0.005N NaOH, with 10 ng ml^−1 BMP4 (R&D Systems). The medium was changed to cardiac differentiation medium with 10 μM KY02111 and/or other WNT inhibitors added on Day 3 (hiPSC lines) or Day 4 (human or monkey ESC lines); XAV939 (Wako, Japan), IWP-2 (Santa Cruz Biotechnology), IWR-1 (Merck4Bioscience), IGFBP4 (R&D Systems), Dkk1 (R&D Systems) and the mixture of bFGF (R&D Systems), BMP4 (R&D Systems), VEGF (R&D Systems), DKK1 (R&D Systems), and Activin A (R&D Systems) (Non-patent literature 16). Medium was changed every 2-3 d. KY02111 and other WNT inhibitors were added until Day 9 for hiPSC lines and the monkey ESC line, or Day 14 for hESC lines. On Day 15, cardiac cell colonies on dishes were incubated with protease solution (0.1% collagenase type I, 0.25% trypsin, 1 U ml^−1 DNase I, 116 mM NaCl, 20 mM HEPES, 12.5 mM NaH2PO4, 5.6 mM glucose, 5.4 mM KCl, and 0.8 mM MgSO4, pH 7.35) for 0.5-2 h, until all cardiac colonies were detached from the bottom of the wells. The detached cardiac colonies were transferred into 15 ml tubes with fresh cardiac differentiation medium and precipitated by gravity, and the supernatant was removed by aspiration. The cardiac colonies were then transferred into Ultra-low culture dishes (Corning, 3261) or 6-well plates (Corning, YO-01835-24) in cardiac differentiation medium without both serum and NaOH. The floating cardiac colonies were maintained for more than 1 month, and the media were changed every 5 d. A differentiation method of mouse ESC (R1 line) was carried out as previously described^46, and KY02111 was added during Days 3-6. Beating colonies were counted on Day 9.

| SMILES | intensity of the GFP signal driven by αMHC promoter [1] | cardiac differentiation when BIO was added [1] | proportions of beating colonies (IMR90-1 hiPSCs; FIG. 3d) [%] | proportions of beating colonies with BIO (IMR90-1 hiPSCs; FIG. 3d) | increase of differentiation compared to the control (GFP signal) ([1]; 10 μM, comparison of WNT inhibitors, FIG. 3b) | GFP expression level induced by N11474 and related compounds (structure-activity) ([1]; DMSO=100%) | promotion of cardiac differentiation relative to DMSO control (GFP increase ratio) ([1]; FIG. 1d) | promotion of cardiac differentiation relative to N11474 ([1]; FIG. 1d) [times] | promotion of cardiac differentiation of hiPSCs compared with other WNT inhibitors (IMR90-1 hiPSCs; FIG. 3d) | proportion of beating colonies after subculture (IMR90-1 hiPSCs; floating culture of beating colonies, FIG. 6) | day on which beating colonies emerged (IMR90-1 hiPSCs; time course, FIG. 6) [days] | day until which cardiac colonies continued beating (IMR90-1 hiPSCs; time course, FIG. 6) [days] |
| --- | --- | --- | --- | --- | --- | --- | --- | --- | --- | --- | --- | --- |
| Cc1ccc2nc(NC(=O)CSc3nc4c(c(=O)n3-c3ccccc3)SCC4)sc2c1 [IWP-2, reference compound] | increased | completely inhibited | 37 | completely inhibit | – | – | – | – | – | – | – | – |
| COc1ccc(CCC(=O)Nc2nc3ccc(Cl)cc3s2)cc1OC [KY02111, 2-(3-(3,4-dimethoxyphenyl)propanamide)-6-chlorobenzothiazole] | most effective | not affected by BIO | 87 | did not cancel | about 80 fold | induced the highest levels | about 73 times | 7.4 | most effective | up to 90% | 10 | ≥ 50 |
| Oc1nc(-c2ccc(C(F)(F)F)cc2)nc2c1CSCC2 [XAV939, reference compound] | increased | completely inhibited | 7.5 | completely inhibit | – | – | – | – | – | – | – | – |
